Data as given in patent publication US20260232767A1, “INTERLEUKIN-23 RECEPTOR ANTAGONIST PEPTIDES FOR USE IN THE TREATMENT OF PSORIASIS” (Janssen Pharmaceutica NV, priority 2023, published 2026).
Read-outs that look alike come from different tables or passages of the source.

Experiment: Plasma concentrations (PK), Example 1
Type: in vivo, human
Settings: human, plasma, oral; for level at 1344 h: Week 8; for level at 168 h: Week 1, Trough; for level at 672 h: Week 4
Experimental: For QD dosing, peak concentration was defined as any PK sample taken between 0.25 to <6 hours after the last morning dose and trough concentration was at least 20 hours after the last morning dose. For BID dosing, peak concentration was defined as any PK sample taken between 0.25 to <4 hours after the last dose and trough concentration was at least 8 hours after the last dose.

[1] = 50 mg, 50 mg QD, Peak, read-out: Plasma concentration, Geometric Mean
[2] = 50 mg, 50 mg QD, Peak, read-out: Plasma concentration, Mean
[3] = 50 mg, 50 mg QD, Peak, read-out: Plasma concentration, Median

## CC(=O)NCCCC[C@@H]1NC(=O)[C@H](Cc2c[nH]c3c(C)cccc23)NC(=O)[C@H]([C@@H](C)O)NC(=O)[C@H](CC(N)=O)NC(=O)[C@@H](NC(C)=O)C(C)(C)SSC(C)(C)[C@@H](C(=O)N[C@@H](Cc2ccc(OCCN)cc2)C(=O)N[C@@H](Cc2ccc3ccccc3c2)C(=O)NC2(C(=O)N[C@@H](CCC(=O)O)C(=O)N[C@@H](CC(N)=O)C(=O)N[C@@H](Cc3cccnc3)C(=O)N(C)CC(N)=O)CCOCC2)NC1=O [IL-23 receptor antagonist peptide, Ac-[Pen]*-N-T-[W(7-Me)]-[Lys(Ac)]-[Pen]*-Phe[4-(2-aminoethoxy)]-[2-Nal]-[THP]-E-N-[3-Pal]-Sarc-NH2 (*[Pen]-[Pen]* formdisulfidebond)]
25 mg, 25 mg QD, Trough, read-out: Plasma concentration, Median
  level at 1344 h: 0.06 ng/mL
25 mg, 25 mg QD, Week 12, Trough, read-out: Plasma concentration, Mean
  level at 2016 h: 0.052 ng/mL
25 mg, weight >90 kg, 25 mg BID, Week 12, Intermediate, read-out: Plasma concentration, Geometric Mean
  level at 2016 h: 0.214 ng/mL
25 mg, weight >90 kg, 25 mg BID, Week 12, Peak, read-out: Plasma concentration, Geometric Mean
  level at 2016 h: 0.32 ng/mL
25 mg, weight >90 kg, 25 mg BID, Week 12, Peak, read-out: Plasma concentration, Mean
  level at 2016 h: 0.391 ng/mL
25 mg, weight >90 kg, 25 mg BID, Week 12, Peak, read-out: Plasma concentration, Median
  level at 2016 h: 0.365 ng/mL
25 mg, weight >90 kg, 25 mg BID, Week 16, Intermediate, read-out: Plasma concentration, Mean
  level at 2688 h: 0.181 ng/mL
25 mg, weight >90 kg, 25 mg BID, Week 16, Trough, read-out: Plasma concentration, Geometric Mean
  level at 2688 h: 0.144 ng/mL
25 mg, weight >90 kg, 25 mg BID, Week 16, Trough, read-out: Plasma concentration, Mean
  level at 2688 h: 0.152 ng/mL
25 mg, weight >90 kg, 25 mg BID, Week 16, Trough, read-out: Plasma concentration, Median
  level at 2688 h: 0.138 ng/mL
25 mg, weight >90 kg, 25 mg QD, read-out: Plasma concentration, Mean
  level at 168 h: 0.044 ng/mL
25 mg, weight >90 kg, 25 mg QD, Week 12, Peak, read-out: Plasma concentration, Geometric Mean
  level at 2016 h: 0.236 ng/mL
25 mg, weight >90 kg, 25 mg QD, Week 12, Peak, read-out: Plasma concentration, Mean
  level at 2016 h: 0.281 ng/mL
25 mg, weight >90 kg, 25 mg QD, Week 12, Peak, read-out: Plasma concentration, Median
  level at 2016 h: 0.291 ng/mL
25 mg, weight >90 kg, 25 mg QD, Week 16, Intermediate, read-out: Plasma concentration, Mean
  level at 2688 h: 0.165 ng/mL
25 mg, weight >90 kg, 25 mg QD, Week 16, Trough, read-out: Plasma concentration, Geometric Mean
  level at 2688 h: 0.063 ng/mL
25 mg, weight >90 kg, 25 mg QD, Week 16, Trough, read-out: Plasma concentration, Mean
  level at 2688 h: 0.066 ng/mL
25 mg, weight >90 kg, 25 mg QD, Week 16, Trough, read-out: Plasma concentration, Median
  level at 2688 h: 0.047 ng/mL
25 mg, weight ≤90 kg, 25 mg QD, Week 12, Trough, read-out: Plasma concentration, Mean
  level at 2016 h: 0.045 ng/mL
[1]
  level at 672 h: 0.481 ng/mL
  level at 1344 h: 0.853 ng/mL
[2]
  level at 672 h: 0.564 ng/mL
  level at 1344 h: 1.1 ng/mL
[3]
  level at 672 h: 0.539 ng/mL
  level at 1344 h: 0.78 ng/mL
50 mg, 50 mg QD, Intermediate, read-out: Plasma concentration, Geometric Mean
  level at 1344 h: 0.441 ng/mL
50 mg, 50 mg QD, Intermediate, read-out: Plasma concentration, Mean
  level at 1344 h: 0.441 ng/mL
50 mg, 50 mg QD, Intermediate, read-out: Plasma concentration, Median
  level at 1344 h: 0.441 ng/mL
50 mg, 50 mg QD, Trough, read-out: Plasma concentration, Geometric Mean
  level at 1344 h: 0.111 ng/mL
50 mg, 50 mg QD, Trough, read-out: Plasma concentration, Mean
  level at 1344 h: 0.147 ng/mL
50 mg, 50 mg QD, Trough, read-out: Plasma concentration, Median
  level at 1344 h: 0.112 ng/mL
50 mg, 50 mg QD, Week 12, Trough, read-out: Plasma concentration, Mean
  level at 2016 h: 0.085 ng/mL
50 mg, weight >90 kg, 50 mg QD, read-out: Plasma concentration, Mean
  level at 168 h: 0.073 ng/mL
50 mg, weight >90 kg, 50 mg QD, Week 12, Peak, read-out: Plasma concentration, Geometric Mean
  level at 2016 h: 0.551 ng/mL
50 mg, weight >90 kg, 50 mg QD, Week 12, Peak, read-out: Plasma concentration, Mean
  level at 2016 h: 0.786 ng/mL
50 mg, weight >90 kg, 50 mg QD, Week 12, Peak, read-out: Plasma concentration, Median
  level at 2016 h: 0.388 ng/mL
50 mg, weight >90 kg, 50 mg QD, Week 16, Intermediate, read-out: Plasma concentration, Mean
  level at 2688 h: 0.321 ng/mL
50 mg, weight >90 kg, 50 mg QD, Week 16, Trough, read-out: Plasma concentration, Geometric Mean
  level at 2688 h: 0.105 ng/mL
50 mg, weight >90 kg, 50 mg QD, Week 16, Trough, read-out: Plasma concentration, Mean
  level at 2688 h: 0.096 ng/mL
50 mg, weight >90 kg, 50 mg QD, Week 16, Trough, read-out: Plasma concentration, Median
  level at 2688 h: 0.115 ng/mL
50 mg, weight ≤90 kg, 50 mg QD, Week 12, Trough, read-out: Plasma concentration, Mean
  level at 2016 h: 0.083 ng/mL
100 mg, 100 mg BID, Intermediate, read-out: Plasma concentration, Geometric Mean
  level at 672 h: 0.756 ng/mL
100 mg, 100 mg BID, Peak, read-out: Plasma concentration, Geometric Mean
  level at 672 h: 1.7 ng/mL
